According to ChEMBL document CHEMBL5038661, “Identification of a Novel 2,8-Diazaspiro[4.5]decan-1-one Derivative as a Potent and Selective Dual TYK2/JAK1 Inhibitor for the Treatment of Inflammatory Bowel Disease” (J Med Chem, 2022):

Assays:
[1] = human, microsomes
[2] = in vivo; details: Sprague-Dawley, rat, po, 5 mg/kg
[3] = in vivo; details: Sprague-Dawley, rat, po, 5 mg/kg; remark: listed apart in the source
[4] = in vivo; details: Sprague-Dawley, rat, po, 5 mg/kg; remark: listed apart in the source
[5] = in vivo; details: Sprague-Dawley, rat, po, 5 mg/kg; remark: listed apart in the source
[6] = in vivo; details: Sprague-Dawley, rat, po, 5 mg/kg; remark: listed apart in the source

[2H]C([2H])([2H])n1cc(Nc2ncc(C)c(N3CCC4(CCNC4=O)CC3)n2)cn1
Stability [1]: Unstable

Cc1cnc(Nc2cnn(C)c2)nc1N1CCC2(CCNC2=O)CC1
Stability [1]: Stable | bioavailability at 24 h [2]: 59.3% | half-life at 24 h [3]: 2.8 h | Cmax at 24 h [4]: 415 ng/mL | AUC(0-t) [5]: 2100 ng·h/mL | CL/F at 24 h [6]: 41.5 mL/min/kg
